Source: the supplement of paper PMC8612539
In brackets after ≈: the same amount, converted by molar mass.

System: Histophilus somni
Experiment: minimum inhibitory concentration (MIC)
Method: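 Broth microdilution MIC (Sensititre BOPO7F bovine plate, CLSI methods) of 19 antimicrobials against field isolates of P. multocida, M. haemolytica, H. somni (deep nasopharyngeal swabs) and E. coli, Enterococcus spp. (rectal swabs) from weaned dairy heifers. Incubation 16-24 h at 35 C. MIC is the lowest concentration preventing visible growth. Values with <= or > lie at the tested range limits. Trimethoprim-sulfamethoxazole is given as the trimethoprim component of a 1:19 mixture.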

CC[C@H]1OC(=O)C[C@@H](O)[C@H](C)[C@@H](O[C@@H]2O[C@H](C)[C@@H](O)[C@H](N(C)C)[C@H]2O)[C@@H](CCN2C[C@H](C)C[C@H](C)C2)C[C@@H](C)C(=O)/C=C/C(C)=C/[C@@H]1CO[C@@H]1O[C@H](C)[C@@H](O)[C@@H](OC)[C@H]1OC [Tilmicosin]
Details	minimum inhibitory concentration [µg/mL]
isolate (source animal id): 3	8 (≈ 9.2 µM)
isolate (source animal id): 4	≤ 2
isolate (source animal id): 7	≤ 2
isolate (source animal id): 14	≤ 2
isolate (source animal id): 15	8 (≈ 9.2 µM)
isolate (source animal id): 17	≤ 2
isolate (source animal id): 18	4 (≈ 4.6 µM)
isolate (source animal id): 20	≤ 2
isolate (source animal id): 23	4 (≈ 4.6 µM)
isolate (source animal id): 45	8 (≈ 9.2 µM)
isolate (source animal id): 53	8 (≈ 9.2 µM)
isolate (source animal id): 83	4 (≈ 4.6 µM)
isolate (source animal id): 88	4 (≈ 4.6 µM)
isolate (source animal id): 92	8 (≈ 9.2 µM)
isolate (source animal id): 93	4 (≈ 4.6 µM)
isolate (source animal id): 99	4 (≈ 4.6 µM)
isolate (source animal id): 100	8 (≈ 9.2 µM)
isolate (source animal id): 105	4 (≈ 4.6 µM)
isolate (source animal id): 107	4 (≈ 4.6 µM)
isolate (source animal id): 108	4 (≈ 4.6 µM)
isolate (source animal id): 109	8 (≈ 9.2 µM)
isolate (source animal id): 110	8 (≈ 9.2 µM)
isolate (source animal id): 117	4 (≈ 4.6 µM)
isolate (source animal id): 121	4 (≈ 4.6 µM)
isolate (source animal id): 123	8 (≈ 9.2 µM)
isolate (source animal id): 124	4 (≈ 4.6 µM)
isolate (source animal id): 127	4 (≈ 4.6 µM)
isolate (source animal id): 128	4 (≈ 4.6 µM)
isolate (source animal id): 130	8 (≈ 9.2 µM)
isolate (source animal id): 132	4 (≈ 4.6 µM)
isolate (source animal id): 135	4 (≈ 4.6 µM)
isolate (source animal id): 140	4 (≈ 4.6 µM)
isolate (source animal id): 141	4 (≈ 4.6 µM)
isolate (source animal id): 142	> 16
isolate (source animal id): 144	8 (≈ 9.2 µM)
isolate (source animal id): 146	8 (≈ 9.2 µM)
isolate (source animal id): 147	> 16
isolate (source animal id): 151	4 (≈ 4.6 µM)
isolate (source animal id): 153	16 (≈ 18.4 µM)
isolate (source animal id): 154	> 16
isolate (source animal id): 156	> 16
isolate (source animal id): 157	16 (≈ 18.4 µM)
isolate (source animal id): 176	16 (≈ 18.4 µM)
isolate (source animal id): 183	8 (≈ 9.2 µM)
isolate (source animal id): 186	8 (≈ 9.2 µM)
isolate (source animal id): 196	8 (≈ 9.2 µM)
isolate (source animal id): 198	8 (≈ 9.2 µM)
isolate (source animal id): 200	8 (≈ 9.2 µM)
isolate (source animal id): 206	8 (≈ 9.2 µM)
isolate (source animal id): 208	8 (≈ 9.2 µM)
isolate (source animal id): 210	4 (≈ 4.6 µM)
isolate (source animal id): 212	≤ 2
isolate (source animal id): 215	8 (≈ 9.2 µM)
isolate (source animal id): 216	16 (≈ 18.4 µM)
isolate (source animal id): 218	8 (≈ 9.2 µM)
isolate (source animal id): 219	8 (≈ 9.2 µM)
isolate (source animal id): 224	8 (≈ 9.2 µM)
isolate (source animal id): 228	8 (≈ 9.2 µM)
isolate (source animal id): 230	16 (≈ 18.4 µM)
isolate (source animal id): 233	4 (≈ 4.6 µM)
isolate (source animal id): 238	≤ 2
isolate (source animal id): 239	8 (≈ 9.2 µM)
isolate (source animal id): 241	8 (≈ 9.2 µM)
isolate (source animal id): 242	8 (≈ 9.2 µM)
isolate (source animal id): 243	8 (≈ 9.2 µM)
isolate (source animal id): 245	≤ 2
isolate (source animal id): 246	8 (≈ 9.2 µM)
isolate (source animal id): 247	16 (≈ 18.4 µM)
isolate (source animal id): 248	≤ 2
isolate (source animal id): 250	8 (≈ 9.2 µM)
isolate (source animal id): 251	8 (≈ 9.2 µM)
isolate (source animal id): 252	16 (≈ 18.4 µM)
isolate (source animal id): 254	8 (≈ 9.2 µM)
isolate (source animal id): 258	4 (≈ 4.6 µM)
isolate (source animal id): 259	4 (≈ 4.6 µM)
isolate (source animal id): 262	≤ 2
isolate (source animal id): 264	≤ 2
isolate (source animal id): 265	≤ 2
isolate (source animal id): 266	4 (≈ 4.6 µM)
isolate (source animal id): 267	4 (≈ 4.6 µM)
isolate (source animal id): 269	4 (≈ 4.6 µM)
isolate (source animal id): 271	4 (≈ 4.6 µM)
isolate (source animal id): 272	≤ 2
isolate (source animal id): 274	≤ 2
isolate (source animal id): 276	≤ 2
isolate (source animal id): 278	≤ 2
isolate (source animal id): 280	≤ 2
isolate (source animal id): 281	8 (≈ 9.2 µM)
isolate (source animal id): 283	4 (≈ 4.6 µM)
isolate (source animal id): 288	8 (≈ 9.2 µM)
isolate (source animal id): 291	4 (≈ 4.6 µM)
isolate (source animal id): 292	8 (≈ 9.2 µM)
isolate (source animal id): 296	4 (≈ 4.6 µM)
isolate (source animal id): 306	8 (≈ 9.2 µM)
isolate (source animal id): 336	8 (≈ 9.2 µM)
isolate (source animal id): 337	8 (≈ 9.2 µM)
isolate (source animal id): 341	8 (≈ 9.2 µM)
